Experimental data reported in the NIST ThermoML archive (doi:10.1016/j.jct.2005.03.020).

What was measured:
[1] = xn = mol fraction of the nth substance listed; details: 298.15 K, 101.33 kPa, Liquid
[2] = excess molar enthalpy (molar enthalpy of mixing); xn = mol fraction of the nth substance listed; details: 298.15 K, 101.33 kPa, Liquid

ClCCCCCCl [1,5-dichloropentane] + CCCC(=O)OCC
Details | excess molar enthalpy [kcal/mol] | mass density [kg/m3]
[1], x2 = 0.0569 | – | 1082.35
[1], x2 = 0.1136 | – | 1069.48
[1], x2 = 0.171 | – | 1056.53
[1], x2 = 0.2286 | – | 1043.61
[1], x2 = 0.2917 | – | 1029.5
[1], x2 = 0.3489 | – | 1016.71
[1], x2 = 0.4084 | – | 1003.45
[1], x2 = 0.4653 | – | 990.76
[1], x2 = 0.5243 | – | 977.72
[1], x2 = 0.5825 | – | 964.82
[1], x2 = 0.6411 | – | 951.9
[1], x2 = 0.7595 | – | 925.89
[1], x2 = 0.8188 | – | 912.92
[1], x2 = 0.8799 | – | 899.6
[1], x2 = 0.9403 | – | 886.46
[2], x2 = 0.0571 | -0.00196 | –
[2], x2 = 0.1213 | -0.00643 | –
[2], x2 = 0.1884 | -0.012 | –
[2], x2 = 0.2532 | -0.0176 | –
[2], x2 = 0.3155 | -0.0235 | –
[2], x2 = 0.3746 | -0.0297 | –
[2], x2 = 0.4289 | -0.0361 | –
[2], x2 = 0.478 | -0.0416 | –
[2], x2 = 0.5235 | -0.0442 | –
[2], x2 = 0.5576 | -0.0456 | –
[2], x2 = 0.5639 | -0.0459 | –
[2], x2 = 0.6129 | -0.0461 | –
[2], x2 = 0.6726 | -0.0449 | –
[2], x2 = 0.736 | -0.0402 | –
[2], x2 = 0.8047 | -0.0329 | –
[2], x2 = 0.8728 | -0.0236 | –
[2], x2 = 0.9406 | -0.0114 | –

ClCCCCl [1,3-dichloropropane] + CCOC(C)=O
[1]
Details | mass density [kg/m3]
x2 = 0.0582 | 1160.94
x2 = 0.1136 | 1144.62
x2 = 0.1719 | 1127.58
x2 = 0.2292 | 1110.81
x2 = 0.2869 | 1094.08
x2 = 0.3444 | 1077.42
x2 = 0.4017 | 1061.01
x2 = 0.4609 | 1044.12
x2 = 0.5208 | 1027.15
x2 = 0.5839 | 1009.34
x2 = 0.6423 | 992.92
x2 = 0.7017 | 976.39
x2 = 0.7599 | 960.24
x2 = 0.8205 | 943.48
x2 = 0.8803 | 927.01
x2 = 0.9389 | 911.03
